Data: patent EP0429304A2, “Pyridone-carboxylic acid derivatives and their use as veterinary medicines” (SHIONOGI SEIYAKU KABUSHIKI KAISHA trading under the name of …, priority 1989, dated 1991)
Where two headings read alike, the source gives them in different places.

Experiments:
[1] = test system: Salmonella typhimurium (S.typhi) 13311; assay: In vitro sensitivity test (agar dilution method); type: cell-based; details: 37°C, 20 to 24 hours
[2] = test system: Pasteurella piscicida (P.pis) No. 2; assay: In vitro sensitivity test; type: cell-based; details: 25°C, 40 to 48 hours
Method in brief: (§1)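 Bacteria were of animal origin. MS strains were grown by liquid dilution in Frey medium with 12 % pig-serum and 0.01 % βNAD at 37°C for 7 days. S.au was tested by agar dilution on Mueller Hinton agar, 37°C for 20 to 24 hours. P.pis was grown on 1.5 % NaCl heart infusion agar at 25°C for 40 to 48 hours.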

[3] = test system: H.pp (otherwise called Actinobacillus pleuropneumoniae) strain M-1; assay: Experimental H.pp infection to pig, through injection; type: in vivo; details: injection to thigh muscle one time, dissection 6 days after inoculation
Experimental: (§2) In these experiments, the compound (I) was applied to the designated animals by (1) oral administration, (2) incorporation into baits and (3) intramuscular injection, the details of which are explained below.
(3) Preparation of the MG infected fowls was performed in the same manner as in (1) above. Infection of H.pp (otherwise called Actinobacillus pleuropneumoniae) to cause pleuropneumonia in pig was performed by inoculating 5 ml of a fresh cultured strain (i.e. M-1) of H.pp to each nasopharyngeal of some 45 days pigs, each weighing 4 to 9 kg (4 to 5 pigs/group), followed by injection of the test compounds to each thigh muscle at a designated volume one time. Pigs were dissected 6 days after the inoculation. The evaluation of the antimicrobial activity was made by observation of the pneumonia symptomes in air sacs, number of dead body and degree of nodosity in air sacks on dissection.

[4] = test system: H.pg strain (i.e. 221); assay: Experimental H.pg infection to chicken, through bait; type: in vivo; details: 28-days chicken infected with 4 x 10⁸ CFU/fowl, dissection, 10th day after inoculation
Source text: as §2

[5] = Acute toxicity (LD50); details: in vivo, read-out: LD₅₀
Source text: The compounds (I) according to the invention show a higher antimicrobial activity than the control or commercially available antimicrobial agents with a smaller dosage. […]

[6] = test system: Mycoplasma synoviae (MS) F10-2as; assay: In vitro sensitivity test (liquid dilution method); type: cell-based; details: 37°C, 7 days
Method in brief: as §1

[7] = test system: TS-resistant strain of MG; type: in vivo, chicken; details: for Number of infected fowl/Number of fowl tested: 3.5 x 10³ CFU/fowl
[8] = test system: Bordetella bronchiseptica (B.br) ABU-1; assay: In vitro sensitivity test (agar dilution method); type: cell-based; details: 37°C, 20 to 24 hours
[9] = test system: Escherichia coli (E.coli) JC-2; assay: In vitro sensitivity test (agar dilution method); type: cell-based; details: 37°C, 20 to 24 hours
[10] = test system: Hemophilus pleuropneumonia (H.pp) M-1; assay: In vitro sensitivity test (agar dilution method); type: cell-based; details: 37°C, 20 hours, 10 % CO₂
[11] = test system: Staphylococcus aureus (S.au) 209P; assay: In vitro sensitivity test (agar dilution method); type: cell-based; details: 37°C, 20 to 24 hours
Method in brief: (§3)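 Read-out is visual growth after incubation. Conditions were 37°C for 7 days in Frey medium (12 % pig-serum, 0.01 % βNAD; liquid dilution) for MS, and 37°C for 20 to 24 hours on Mueller Hinton agar for S.au. P.pis used 25°C, 40 to 48 hours, on 1.5 % NaCl heart infusion agar.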

[12] = test system: Escherichia coli (E.coli) E-17, chicken-origin strain isolated from the field; assay: In vitro sensitivity test (agar dilution method); type: cell-based; details: 37°C, 20 to 24 hours
Method in brief: as §3

[13] = test system: Hemophilus paragallinarum (H.pg) 221; assay: In vitro sensitivity test (agar dilution method); type: cell-based; details: agar dilution, 37°C, 20 hours, 10 % CO₂
[14] = test system: Hemophilus paragallinarum (H.pg) S-1; assay: In vitro sensitivity test (agar dilution method); type: cell-based; details: agar dilution, 37°C, 20 hours, 10 % CO₂
[15] = test system: TS-resistant MG; assay: Experimental MG infection to chicken, through injection; type: in vivo; details: 5 fowl tested, 10-days chicken, 3.1 x 10³ CFU/fowl
[16] = test system: TS-resistant MG; assay: Experimental MG infection to chicken, through bait; type: in vivo; details: 9-days chicken; for Number of fowl having air sack lesions: 1.8 x 10³ CFU/fowl; for Number of infected fowl/Number of fowl tested: 6.6 x 10³ CFU/fowl, dissection 6th day after inoculation
[17] = test system: Mycoplasma synoviae (MS) 1853; assay: In vitro sensitivity test (liquid dilution method); type: cell-based; details: 37°C, 7 days
Method in brief: as §1

[18] = test system: Mycoplasma gallisepticum (MG) T-7-T, TS-resistant strain isolated from the field; assay: In vitro sensitivity test (liquid dilution method); type: cell-based; details: 37°C, 7 days
[19] = test system: Mycoplasma gallisepticum (MG) S6; assay: In vitro sensitivity test (liquid dilution method); type: cell-based; details: 37°C, 7 days
[20] = test system: Mycoplasma hyopneumoniae (Mh) ST-11; assay: In vitro sensitivity test (liquid dilution method); type: cell-based; details: 37°C, 7 days

With `CNCC12CCCC1CN(c1c(F)cc3c(=O)c(C(=O)O)cn(C4CC4)c3c1F)C2.Cl` (stereo not shown) [I-5] the “In vitro Sensitivity Test S.typhi 13311” value [1] was 0.2 µg/mL, the “In vitro Sensitivity Test P.pis No. 2” value [2] was 1.56 µg/mL and the “Number of pig died or developed dyspnea/Number of pig tested” value ([3]; Dose 10 mg/kg) was 0/4. For the same compound, the “Number of pig having nodi/Number of pig tested” value ([3]; Dose 10 mg/kg) was 0/4, the “Effective concentration to prevent pituita” value [4] was 1.56 ppm/day and the LD50 ([5]; ip, Mouse (B6C3F₁, male), i.p.) was 200 mg/kg. For the same compound, the LD50 ([5]; po, Chicken ( -days), p.o.) was 500 mg/kg, the LD50 ([5]; po, Mouse (B6C3F₁, male), p.o.) was 2000 mg/kg and the “In vitro Sensitivity Test MS F10-2as” value [6] was 0.2 µg/ml. For the same compound, the “antimicrobial activity compared with ERFX” value ([7]; in vivo, po) was “two times more effective than ERFX”, the “complete inihibition of the lesions in air sac at a concentration of” value ([7]; in vivo, po) was “about 3.13 mg/kg” and the “Infectious index Left air sack +” value ([7]; in vivo, po, 1.56 mg/kg) was 0. For the same compound, the “Infectious index Left air sack ++” value ([7]; in vivo, po, 1.56 mg/kg) was 0, the “Infectious index Left air sack +++” value ([7]; in vivo, po, 1.56 mg/kg) was 0 and the “Infectious index Left air sack -” value ([7]; in vivo, po, 1.56 mg/kg) was 4. For the same compound, the “Infectious index Right air sack +” value ([7]; in vivo, po, 1.56 mg/kg) was 0, the “Infectious index Right air sack ++” value ([7]; in vivo, po, 1.56 mg/kg) was 1 and the “Infectious index Right air sack +++” value ([7]; in vivo, po, 1.56 mg/kg) was 1. For the same compound, the “Infectious index Right air sack -” value ([7]; in vivo, po, 1.56 mg/kg) was 2, the “Number of fowl having air sack lesions” value ([7]; in vivo, po, 1.56 mg/kg) was 2 and the “Infectious index Left air sack +” value ([7]; in vivo, po, 3.13 mg/kg) was 0. The “Infectious index Left air sack ++” value ([7]; in vivo, po, 3.13 mg/kg) was 0, the “Infectious index Left air sack +++” value ([7]; in vivo, po, 3.13 mg/kg) was 0 and the “Infectious index Left air sack -” value ([7]; in vivo, po, 3.13 mg/kg) was 5. The “Infectious index Right air sack +” value ([7]; in vivo, po, 3.13 mg/kg) was 0, the “Infectious index Right air sack ++” value ([7]; in vivo, po, 3.13 mg/kg) was 0 and the “Infectious index Right air sack +++” value ([7]; in vivo, po, 3.13 mg/kg) was 0. The “Infectious index Right air sack -” value ([7]; in vivo, po, 3.13 mg/kg) was 5, the “Number of fowl having air sack lesions” value ([7]; in vivo, po, 3.13 mg/kg) was 0 and the “Infectious index Left air sack +” value ([7]; in vivo, po, 6.25 mg/kg) was 0. The “Infectious index Left air sack ++” value ([7]; in vivo, po, 6.25 mg/kg) was 0, the “Infectious index Left air sack +++” value ([7]; in vivo, po, 6.25 mg/kg) was 0 and the “Infectious index Left air sack -” value ([7]; in vivo, po, 6.25 mg/kg) was 5. For the same compound, the “Infectious index Right air sack +” value ([7]; in vivo, po, 6.25 mg/kg) was 0, the “Infectious index Right air sack ++” value ([7]; in vivo, po, 6.25 mg/kg) was 0 and the “Infectious index Right air sack +++” value ([7]; in vivo, po, 6.25 mg/kg) was 0. For the same compound, the “Infectious index Right air sack -” value ([7]; in vivo, po, 6.25 mg/kg) was 5, the “Number of fowl having air sack lesions” value ([7]; in vivo, po, 6.25 mg/kg) was 0 and the “Infectious index Left air sack +” value ([7]; in vivo, po, 25 mg/kg) was 0. For the same compound, the “Infectious index Left air sack ++” value ([7]; in vivo, po, 25 mg/kg) was 0, the “Infectious index Left air sack +++” value ([7]; in vivo, po, 25 mg/kg) was 0 and the “Infectious index Left air sack -” value ([7]; in vivo, po, 25 mg/kg) was 5. The “Infectious index Right air sack +” value ([7]; in vivo, po, 25 mg/kg) was 0, the “Infectious index Right air sack ++” value ([7]; in vivo, po, 25 mg/kg) was 0 and the “Infectious index Right air sack +++” value ([7]; in vivo, po, 25 mg/kg) was 0. For the same compound, the “Infectious index Right air sack -” value ([7]; in vivo, po, 25 mg/kg) was 5 and the “Number of fowl having air sack lesions” value ([7]; in vivo, po, 25 mg/kg) was 0.
With `CCN1CCN(c2cc3c(cc2F)c(=O)c(C(=O)O)cn3C2CC2)CC1` [ERFX, Enrofuroxasin®, reference compound] the “In vitro Sensitivity Test B.br ABU-1” value [8] was 0.1 µg/mL, the “In vitro Sensitivity Test E.coli JC-2” value [9] was 0.1 µg/mL and the “In vitro Sensitivity Test H.pp M-1” value [10] was 0.2 µg/mL. The “In vitro Sensitivity Test S.au 209P” value [11] was 0.1 µg/mL, the “In vitro Sensitivity Test E.coli E-17” value [12] was 0.1 µg/ml and the “In vitro Sensitivity Test H.pg 221” value [13] was 0.1 µg/mL. The “In vitro Sensitivity Test H.pg S-1” value [14] was 0.2 µg/mL, the “Number of pig died or developed dyspnea/Number of pig tested” value ([3]; Dose 5 mg/kg) was 0/4 and the “Number of pig having nodi/Number of pig tested” value ([3]; Dose 5 mg/kg) was 0/4. The “Number of pig died or developed dyspnea/Number of pig tested” value ([3]; Dose 10 mg/kg) was 0/4, the “Number of pig having nodi/Number of pig tested” value ([3]; Dose 10 mg/kg) was 0/4 and the “Number of fowl having air sack lesions” value ([15]; Dose 1.56 mg/kg) was 3. For the same compound, the “Number of fowl having air sack lesions” value ([15]; Dose 3.13 mg/kg) was 2, the “Effective concentration to prevent pituita” value [4] was 7.8 ppm/day and the “Number of fowl having air sack lesions” value ([16]; bait 15.6 ppm/Day) was 1. The “Number of fowl having air sack lesions” value ([16]; bait 31.3 ppm/Day) was 0, the “Number of infected fowl/Number of fowl tested” value ([16]; bait 31.3 ppm/Day) was 1/7 and the “Number of fowl having air sack lesions” value ([16]; bait 62.5 ppm/Day) was 0. For the same compound, the “Number of infected fowl/Number of fowl tested” value ([16]; bait 62.5 ppm/Day) was 0/7, the “Number of infected fowl/Number of fowl tested” value ([16]; bait 125 ppm/Day) was 0/7 and the “In vitro Sensitivity Test MS F10-2as” value [6] was 3.13 µg/ml. The “In vitro Sensitivity Test MS 1853” value [17] was 0.1 µg/mL, the “In vitro Sensitivity Test MG T-7-T” value [18] was 0.1 µg/mL and the “In vitro Sensitivity Test MG S6” value [19] was 0.1 µg/mL. For the same compound, the “In vitro Sensitivity Test Mh ST-11” value [20] was 0.05 µg/mL, the “Number of infected fowl/Number of fowl tested” value ([7]; oral 1.56 mg/kg, 9-days chicken) was 2/5 and the “Number of fowl having air sack lesions” value ([7]; oral 3.13 mg/kg, 9-days chicken, 2.2 x 10³ CFU/fowl) was 2. The “Number of infected fowl/Number of fowl tested” value ([7]; oral 3.13 mg/kg, 9-days chicken) was 0/5, the “Number of fowl having air sack lesions” value ([7]; oral 6.25 mg/kg, 9-days chicken, 1.7 x 10³ CFU/fowl) was 1 and the “Number of fowl having air sack lesions” value ([7]; oral 6.25 mg/kg, 9-days chicken, 2.2 x 10³ CFU/fowl) was 0. The “Number of infected fowl/Number of fowl tested” value ([7]; oral 6.25 mg/kg, 9-days chicken) was 0/5, the “Number of fowl having air sack lesions” value ([7]; oral 6.25 mg/kg, 10-days chicken, 1.2 x 10³ CFU/fowl) was 2 and the “Number of fowl having air sack lesions” value ([7]; oral 6.25 mg/kg, 10-days chicken, 3.0 x 10³ CFU/fowl) was 2. For the same compound, the “Number of fowl having air sack lesions” value ([7]; oral 12.5 mg/kg, 9-days chicken, 1.7 x 10³ CFU/fowl) was 0, the “Number of fowl having air sack lesions” value ([7]; oral 12.5 mg/kg, 9-days chicken, 2.2 x 10³ CFU/fowl) was 0 and the “Number of fowl having air sack lesions” value ([7]; oral 12.5 mg/kg, 10-days chicken, 1.2 x 10³ CFU/fowl) was 0. The “Number of fowl having air sack lesions” value ([7]; oral 12.5 mg/kg, 10-days chicken, 3.0 x 10³ CFU/fowl) was 0, the “Number of fowl having air sack lesions” value ([7]; oral 25.0 mg/kg, 9-days chicken, 1.7 x 10³ CFU/fowl) was 0 and the “Number of fowl having air sack lesions” value ([7]; oral 25.0 mg/kg, 10-days chicken, 1.2 x 10³ CFU/fowl) was 0. The “Number of fowl having air sack lesions” value ([7]; oral 25.0 mg/kg, 10-days chicken, 3.0 x 10³ CFU/fowl) was 0 and the “complete inihibition of the lesions in air sac at a concentration of” value ([7]; oral administration, MG-infected chicken) was 12.5 mg/kg.
